According to the supplement of paper PMC10307832:

How the values were obtained:
Assay in all cases: relative viability (nuclei count vs DMSO), 5 days (fraction); higher = more cells survive
[1] = compound: COc1ncc(-c2ccc3nccc(-c4ccnnc4)c3c2)cc1NS(=O)(=O)c1ccc(F)cc1F [Omipalisib]
Summary of the method: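 Acceptance criteria were a control CV below 25% and at least one doubling per plate. Lung cancer cell lines in 1536-well plates got five library-drug doses (not always all listed) √10 apart by pinning and were left 5 days with no medium change. Viability divides treated-well nuclei by vehicle-well nuclei and is the median across plates. Nuclei were counted by MetaXpress from 4× Hoechst images.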

[2] = compound: COc1ncc(-c2ccc3nccc(-c4ccnnc4)c3c2)cc1NS(=O)(=O)c1ccc(F)cc1F [Omipalisib] + N=C(N)NC(=N)NCCc1ccccc1 [Phenformin] (partner 250 µM)
Summary of the method: (§1)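 One day after seeding in 1536-well plates, lung cancer cell lines were dosed by pin tool. Dosing was either single-drug or a fixed anchor-drug dose plus five library-drug doses (not always all listed) in √10 steps. After 5 days, nuclei were stained in one fix-and-stain step and counted on 4× images, and relative viability is the nuclei count of treated wells over that of vehicle wells, given as the median of duplicate plates.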

[3] = compound: COc1ncc(-c2ccc3nccc(-c4ccnnc4)c3c2)cc1NS(=O)(=O)c1ccc(F)cc1F [Omipalisib] + CCNC(=O)c1noc(-c2cc(C(C)C)c(O)cc2O)c1-c1ccc(CN2CCOCC2)cc1 [Luminespib] (partner 0.01 µM)
Summary of the method: as §1

[4] = compound: COc1ncc(-c2ccc3nccc(-c4ccnnc4)c3c2)cc1NS(=O)(=O)c1ccc(F)cc1F [Omipalisib] + Cc1cc(Nc2cc(N3CCN(C)CC3)nc(Sc3ccc(NC(=O)C4CC4)cc3)n2)n[nH]1 [Tozasertib] (partner 0.1 µM)
Summary of the method: as §1

[5] = compound: COc1ncc(-c2ccc3nccc(-c4ccnnc4)c3c2)cc1NS(=O)(=O)c1ccc(F)cc1F [Omipalisib] + Cc1nc(Nc2ncc(C(=O)Nc3c(C)cccc3Cl)s2)cc(N2CCN(CCO)CC2)n1 [Dasatinib] (partner 0.075 µM)
Summary of the method: as §1

[6] = compound: COc1ncc(-c2ccc3nccc(-c4ccnnc4)c3c2)cc1NS(=O)(=O)c1ccc(F)cc1F [Omipalisib] + O=C(c1cc(Cc2n[nH]c(=O)c3ccccc23)ccc1F)N1CCN(C(=O)C2CC2)CC1 [Olaparib] (partner 8 µM)
Summary of the method: as §1

[7] = compound: COc1ncc(-c2ccc3nccc(-c4ccnnc4)c3c2)cc1NS(=O)(=O)c1ccc(F)cc1F [Omipalisib] + Nc1ncn([C@H]2C[C@H](O)[C@@H](CO)O2)c(=O)n1 [Decitabine] (partner 2 µM)
Summary of the method: as §1

[8] = compound: COc1ncc(-c2ccc3nccc(-c4ccnnc4)c3c2)cc1NS(=O)(=O)c1ccc(F)cc1F [Omipalisib] + NC(=O)Nc1cc(-c2cccc(F)c2)sc1C(=O)N[C@H]1CCCNC1 [AZD7762] (partner 0.2 µM)
Summary of the method: as §1

[9] = compound: COc1ncc(-c2ccc3nccc(-c4ccnnc4)c3c2)cc1NS(=O)(=O)c1ccc(F)cc1F [Omipalisib] + Nc1nc2[nH]cc(CCc3ccc(C(=O)N[C@@H](CCC(=O)O)C(=O)O)cc3)c2c(=O)[nH]1 [Pemetrexed] (partner 0.2 µM)
Summary of the method: as §1

[10] = compound: COc1ncc(-c2ccc3nccc(-c4ccnnc4)c3c2)cc1NS(=O)(=O)c1ccc(F)cc1F [Omipalisib] + CC(=O)c1c(C)c2cnc(Nc3ccc(N4CCNCC4)cn3)nc2n(C2CCCC2)c1=O [Palbociclib] (partner 0.5 µM)
Summary of the method: as §1

[11] = compound: COc1ncc(-c2ccc3nccc(-c4ccnnc4)c3c2)cc1NS(=O)(=O)c1ccc(F)cc1F [Omipalisib] + CC(=O)Nc1cccc(-n2c(=O)n(C3CC3)c(=O)c3c(Nc4ccc(I)cc4F)n(C)c(=O)c(C)c32)c1 [Trametinib] (partner 0.02 µM)
Summary of the method: as §1

[12] = compound: COc1ncc(-c2ccc3nccc(-c4ccnnc4)c3c2)cc1NS(=O)(=O)c1ccc(F)cc1F [Omipalisib] + O=C(CCCCCCC(=O)Nc1ccccc1)NO [Vorinostat] (partner 1 µM)
Summary of the method: as §1

[13] = compound: COc1ncc(-c2ccc3nccc(-c4ccnnc4)c3c2)cc1NS(=O)(=O)c1ccc(F)cc1F [Omipalisib] + COc1cccc2cc(-c3nc([C@H]4CC[C@H](C(=O)O)CC4)n4ncnc(N)c34)[nH]c12 [OSI-027] (partner 0.5 µM)
Summary of the method: as §1

[14] = compound: COc1ncc(-c2ccc3nccc(-c4ccnnc4)c3c2)cc1NS(=O)(=O)c1ccc(F)cc1F [Omipalisib] + COc1cc2c(Oc3ccc(NC(=O)C4(C(=O)Nc5ccc(F)cc5)CC4)cc3F)ccnc2cc1OCCCN1CCOCC1 [Foretinib] (partner 0.25 µM)
Summary of the method: as §1

[15] = compound: COc1ncc(-c2ccc3nccc(-c4ccnnc4)c3c2)cc1NS(=O)(=O)c1ccc(F)cc1F [Omipalisib] + CS(=O)(=O)CCNCc1ccc(-c2ccc3ncnc(Nc4ccc(OCc5cccc(F)c5)c(Cl)c4)c3c2)o1 [Lapatinib] (partner 2 µM)
Summary of the method: as §1

[16] = compound: COc1ncc(-c2ccc3nccc(-c4ccnnc4)c3c2)cc1NS(=O)(=O)c1ccc(F)cc1F [Omipalisib] + C[C@@H](Oc1cc(-c2cnn(C3CCNCC3)c2)cnc1N)c1c(Cl)ccc(F)c1Cl [Crizotinib] (partner 1 µM)
Summary of the method: as §1

[17] = compound: COc1ncc(-c2ccc3nccc(-c4ccnnc4)c3c2)cc1NS(=O)(=O)c1ccc(F)cc1F [Omipalisib] + CC1(C)CCC(c2ccc(Cl)cc2)=C(CN2CCN(c3ccc(C(=O)NS(=O)(=O)c4ccc(N[C@H](CCN5CCOCC5)CSc5ccccc5)c(S(=O)(=O)C(F)(F)F)c4)cc3)CC2)C1 [Navitoclax] (partner 0.5 µM)
Summary of the method: as §1

[18] = compound: COc1ncc(-c2ccc3nccc(-c4ccnnc4)c3c2)cc1NS(=O)(=O)c1ccc(F)cc1F [Omipalisib] + C[C@]1(O)C[C@@H](c2nc(-c3ccc4ccc(-c5ccccc5)nc4c3)c3c(N)nccn32)C1 [Linsitinib] (partner 1 µM)
Summary of the method: as §1

[19] = compound: COc1ncc(-c2ccc3nccc(-c4ccnnc4)c3c2)cc1NS(=O)(=O)c1ccc(F)cc1F [Omipalisib] + Cc1nc(NC(=O)N2CCC[C@H]2C(N)=O)sc1-c1ccnc(C(C)(C)C(F)(F)F)c1 [Alpelisib] (partner 2 µM)
Summary of the method: as §1

[20] = compound: COc1ncc(-c2ccc3nccc(-c4ccnnc4)c3c2)cc1NS(=O)(=O)c1ccc(F)cc1F [Omipalisib] + CC(C)C[C@H](NC(=O)[C@H](Cc1ccccc1)NC(=O)c1cnccn1)B(O)O [Bortezomib] (partner 0.002 µM)
Summary of the method: as §1

[21] = compound: COc1ncc(-c2ccc3nccc(-c4ccnnc4)c3c2)cc1NS(=O)(=O)c1ccc(F)cc1F [Omipalisib] + CS(=O)(=O)N1CCN(Cc2cc3nc(-c4cccc5[nH]ncc45)nc(N4CCOCC4)c3s2)CC1 [Pictilisib] (partner 1 µM)
Summary of the method: as §1

For NCI-H522, the relative viability ([1]; 0.0003 µM) was 0.838, the relative viability ([1]; 0.003 µM) was 0.912 and the relative viability ([1]; 0.03 µM) was 0.694. The relative viability ([2]; first compound 0.0003 µM) was 0.604, the relative viability ([2]; first compound 0.003 µM) was 0.559 and the relative viability ([2]; first compound 0.03 µM) was 0.583. The relative viability ([3]; first compound 0.0003 µM) was 1.04, the relative viability ([3]; first compound 0.003 µM) was 1.89 and the relative viability ([3]; first compound 0.03 µM) was 0.652. For the same cell line, the relative viability ([4]; first compound 0.0003 µM) was 0.515, the relative viability ([4]; first compound 0.003 µM) was 0.451 and the relative viability ([4]; first compound 0.03 µM) was 0.438. The relative viability ([5]; first compound 0.0003 µM) was 0.857, the relative viability ([5]; first compound 0.003 µM) was 0.745 and the relative viability ([5]; first compound 0.03 µM) was 0.626. It also gave a relative viability ([6]; first compound 0.0003 µM) of 0.532, a relative viability ([6]; first compound 0.003 µM) of 0.614 and a relative viability ([6]; first compound 0.03 µM) of 0.505. For the same cell line, the relative viability ([7]; first compound 0.0003 µM) was 0.665, the relative viability ([7]; first compound 0.003 µM) was 0.596 and the relative viability ([7]; first compound 0.03 µM) was 0.595. The relative viability ([8]; first compound 0.0003 µM) was 0.652, the relative viability ([8]; first compound 0.003 µM) was 0.58 and the relative viability ([8]; first compound 0.03 µM) was 0.839. The relative viability ([9]; first compound 0.0003 µM) was 0.963, the relative viability ([9]; first compound 0.003 µM) was 0.932 and the relative viability ([9]; first compound 0.03 µM) was 0.636. It also gave a relative viability ([10]; first compound 0.0003 µM) of 1.01, a relative viability ([10]; first compound 0.003 µM) of 0.823 and a relative viability ([10]; first compound 0.03 µM) of 0.532. It also gave a relative viability ([11]; first compound 0.0003 µM) of 0.746, a relative viability ([11]; first compound 0.003 µM) of 0.604 and a relative viability ([11]; first compound 0.03 µM) of 0.443. It also gave a relative viability ([12]; first compound 0.0003 µM) of 0.837, a relative viability ([12]; first compound 0.003 µM) of 0.766 and a relative viability ([12]; first compound 0.03 µM) of 0.724. It also gave a relative viability ([13]; first compound 0.0003 µM) of 0.69, a relative viability ([13]; first compound 0.003 µM) of 0.641 and a relative viability ([13]; first compound 0.03 µM) of 0.531.

NCI-H1623 was tested, and the relative viability ([1]; 0.0003 µM) was 0.855, the relative viability ([1]; 0.003 µM) was 0.553 and the relative viability ([1]; 0.03 µM) was 0.359. For the same cell line, the relative viability ([2]; first compound 0.0003 µM) was 0.479, the relative viability ([2]; first compound 0.003 µM) was 0.607 and the relative viability ([2]; first compound 0.03 µM) was 0.247. The relative viability ([3]; first compound 0.0003 µM) was 0.399, the relative viability ([3]; first compound 0.003 µM) was 0.287 and the relative viability ([3]; first compound 0.03 µM) was 0.292. It also gave a relative viability ([4]; first compound 0.0003 µM) of 0.409, a relative viability ([4]; first compound 0.003 µM) of 0.354 and a relative viability ([4]; first compound 0.03 µM) of 0.273. The relative viability ([5]; first compound 0.0003 µM) was 0.488, the relative viability ([5]; first compound 0.003 µM) was 0.466 and the relative viability ([5]; first compound 0.03 µM) was 0.266. For the same cell line, the relative viability ([14]; first compound 0.0003 µM) was 0.76, the relative viability ([14]; first compound 0.003 µM) was 0.727 and the relative viability ([14]; first compound 0.03 µM) was 0.316. The relative viability ([13]; first compound 0.0003 µM) was 0.398, the relative viability ([13]; first compound 0.003 µM) was 0.338 and the relative viability ([13]; first compound 0.03 µM) was 0.294.

With IA-LM the relative viability ([1]; 0.0003 µM) was 0.888, the relative viability ([1]; 0.003 µM) was 0.764 and the relative viability ([1]; 0.03 µM) was 0.355. The relative viability ([6]; first compound 0.0003 µM) was 0.903, the relative viability ([6]; first compound 0.003 µM) was 0.85 and the relative viability ([6]; first compound 0.03 µM) was 0.602. For the same cell line, the relative viability ([15]; first compound 0.0003 µM) was 0.95, the relative viability ([15]; first compound 0.003 µM) was 0.703 and the relative viability ([15]; first compound 0.03 µM) was 0.251. For the same cell line, the relative viability ([16]; first compound 0.0003 µM) was 0.906, the relative viability ([16]; first compound 0.003 µM) was 0.682 and the relative viability ([16]; first compound 0.03 µM) was 0.288. It also gave a relative viability ([17]; first compound 0.0003 µM) of 0.92, a relative viability ([17]; first compound 0.003 µM) of 0.847 and a relative viability ([17]; first compound 0.03 µM) of 0.251. For the same cell line, the relative viability ([14]; first compound 0.0003 µM) was 1.27, the relative viability ([14]; first compound 0.003 µM) was 0.997 and the relative viability ([14]; first compound 0.03 µM) was 0.683. It also gave a relative viability ([18]; first compound 0.0003 µM) of 0.636, a relative viability ([18]; first compound 0.003 µM) of 0.571 and a relative viability ([18]; first compound 0.03 µM) of 0.243. The relative viability ([19]; first compound 0.0003 µM) was 0.785, the relative viability ([19]; first compound 0.003 µM) was 0.793 and the relative viability ([19]; first compound 0.03 µM) was 0.373. It also gave a relative viability ([12]; first compound 0.0003 µM) of 0.873, a relative viability ([12]; first compound 0.003 µM) of 0.916 and a relative viability ([12]; first compound 0.03 µM) of 0.25. It also gave a relative viability ([20]; first compound 0.0003 µM) of 1.01, a relative viability ([20]; first compound 0.003 µM) of 0.818 and a relative viability ([20]; first compound 0.03 µM) of 0.258. It also gave a relative viability ([21]; first compound 0.0003 µM) of 0.45, a relative viability ([21]; first compound 0.003 µM) of 0.317 and a relative viability ([21]; first compound 0.03 µM) of 0.197.
